# Patent publication US20100099756A1, “USES OF INCENSOLE, INCENSOLE ACETATE AND DERIVATIVES THEREOF” (YISSUM RESEARCH DEVELOPMENT COMPANY OF THE HEBREW …, priority 2006, published 2010)
# Tests used:
# TRPV1 [1] = target: T1, TRPV1 (Homo sapiens, UniProt Q8NER1); experiment: Whole-cell voltage-clamp, TRPV1(+) cells; assay type: cell-based; settings: IA 200 μM
# Experimental: TRPV3(+) response to IA is shown for reference. *, p<0.001. Error bars represent SEM, n=4-5.
# Electrophysiological recording. Currents were recorded using whole-cell voltage-clamp. Pipettes were pulled from microcapillary glass (A-M Systems). A coverslip containing cells was transferred to a 300 μL chamber that was constantly perfused (1-2 mL/min) with external solution. Voltage protocols were generated and data were digitized and recorded using Pulse (HEKA Elektronik) software in conjunction with an Axopatch 200A amplifier (Axon Instruments), and the data analyzed using an in-house Visual Basic (Microsoft) analysis program.
# The pipette solution contained (in mM): 121.5 Kgluconate, 10 HEPES, 17 KCl, 9 NaCl, 1 MgCl2, 0.2 EGTA, 2 MgATP, and 0.5 NaATP, pH 7.2. The external solution contained (in mM): 120 NaCl, 5 KCl, 1 MgCl2, 2 CaCl2, 10 Glucose and 20 HEPES, pH 7.4 with NaOH. The measured charge (pC) was defined as the charge elicited between -85 and -45 mV by a ramping voltage stimulus (−85 mV to +35 mV, 0.54 mV/msec; holding potential -55 mV). Currents were sampled at 5 kHz. Experimental and control cells were alternated whenever possible. Control values were obtained from adjacent cells with no detectable YFP fluorescence, presumed to be non-TRPV3-expressing.
# TNF-α and IL-1β mRNA = experiment: IL-1β and TNFα mRNA expression after CHI (real-time PCR); assay type: in vivo, mice; settings: 3 hours after CHI, 50 mg/kg, relative to β-actin, P<0.05
# Experimental: IL-1β and TNFα mRNA levels were quantified 3 hours post-injury by real time polymarerase chain reaction. β-actin was used as endogenous control. *p<0.05 vs. vehicle, as determined by student's t-tests.
# The mRNA levels of these cytokines were quantified at 3 hours after CHI using real-time PCR.
# TRPV1 [2] = target: T1, TRPV1; experiment: Calcium imaging of TRPV1-transfected HEK293 cells; assay type: cell-based; settings: IA 100 μM, compared to vehicle
# Experimental: All error bars indicate SEM; p values in all subfigures but c represent analysis with one-way ANOVA Bonferroni's post hoc.
# Human HEK 293 cells stably expressing TRPV1 were a kind gift from Merck Research Laboratories (Whitehouse Station, N.J.). Cells were cultured in minimal essential medium, Eagle, modified with non-essential amino acids, 1 mM sodium pyruvate, 2 mM L-glutamine and 1.5 g/L sodium bicarbonate (ATCC, Mabassas, Va.), containing 1% Penicillin-streptomycin, and 10% foetal bovine serum. Cells were passaged three times a week using Trypsin-EDTA 1× (Invitrogen, Carlsbad, Calif.) and grown under 5% CO2 at 37° C.
# Calcium imaging of HEK 293 cells. TRPV1, TRPV3, and TRPV4 expressing HEK293 cells were plated 24-48 h before imaging in 96 well plates, loaded with 3 μM Fura-2 AM and imaged as previously described [O'dell, D. K., Rimmerman, N., Pickens, S. R. & Walker J. M. Fatty acyl amides of endogenous tetrahydroisoquinolines are active at the recombinant human TRPV1 receptor. […] Med. Chem. 15, 6164-6169 (2007)].
# General toxicity in mice = assay type: in vivo; settings: single dose 150 mg/kg and 30 mg/kg 3 times a week for a month
# TRPV3 = target: T2, TRPV3 (Mus musculus, UniProt Q8K424); experiment: Porsolt forced swimming test in WT and TRPV3−/− mice; assay type: in vivo, C57BL/6 mice; set-up: from tissue; host or cells: whole animal, wild type C57BL/6 female mice (TRPV3 KO as control); settings: 75 mg/kg
# T2 sequence (Q8K424 1-791): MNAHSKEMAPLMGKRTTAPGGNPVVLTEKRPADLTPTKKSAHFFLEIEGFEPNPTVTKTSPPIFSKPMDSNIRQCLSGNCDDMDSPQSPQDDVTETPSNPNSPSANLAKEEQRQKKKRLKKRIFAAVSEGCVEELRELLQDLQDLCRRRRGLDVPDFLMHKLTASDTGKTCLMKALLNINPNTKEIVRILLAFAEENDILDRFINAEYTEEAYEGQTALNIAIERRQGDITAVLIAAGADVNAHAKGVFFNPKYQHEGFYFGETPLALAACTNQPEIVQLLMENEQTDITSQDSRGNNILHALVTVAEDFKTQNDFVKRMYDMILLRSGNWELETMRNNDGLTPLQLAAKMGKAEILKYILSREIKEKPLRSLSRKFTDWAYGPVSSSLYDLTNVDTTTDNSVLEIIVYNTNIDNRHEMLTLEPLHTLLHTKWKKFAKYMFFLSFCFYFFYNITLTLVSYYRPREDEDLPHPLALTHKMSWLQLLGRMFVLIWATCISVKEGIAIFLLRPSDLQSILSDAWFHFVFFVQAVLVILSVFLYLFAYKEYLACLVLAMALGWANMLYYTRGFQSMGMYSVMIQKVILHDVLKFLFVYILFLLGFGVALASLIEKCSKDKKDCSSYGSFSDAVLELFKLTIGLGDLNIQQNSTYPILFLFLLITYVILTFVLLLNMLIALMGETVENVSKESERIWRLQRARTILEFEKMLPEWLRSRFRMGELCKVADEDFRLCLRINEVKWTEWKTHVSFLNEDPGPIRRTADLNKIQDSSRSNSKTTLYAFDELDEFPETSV
# Experimental: Wild type and TRPV3^−/− mice (18-20 weeks old) were injected with vehicle (isopropanol:emulphor:saline=1:1:18) or IA (75 mg/kg). 30 min later they were tested in a, the elevated plus maze (5 min), followed by b, 9 min exposure to the Porsolt forced-swimming test. […] Data are presented as means±SEM; n=4-5. * p<0.05, compared to WT-Vehicle-injected mice (Bonferroni post hoc test). ** p<0.01, compared to WT-Vehicle-injected mice (Bonferroni post hoc test).
# Animals and procedures. Female Sabra mice (Harlan, Israel, 15-20 weeks old) and wild type C57BL/6 or TRPV3 KO female mice (18-20 weeks old) [Chung, M. K., Lee, H., Mizuno, A., Suzuki, M. & Caterina, M. J. TRPV3 and TRPV4 mediate warmth-evoked currents in primary mouse keratinocytes. J. Biol. Chem. 279, 21569-21575 (2004)] were used for behavioral assessments. 10 mice were housed in each cage. The animal care and protocols met the guidelines of the U.S. National Institutes of Health, detailed in the Guide for the Care and Use of Laboratory Animals, and were applied in conformity with the Institutional Ethics Committees. For the c-Fos immunostaining, female Sabra mice (see above) were used. Temperature in the animal room was maintained between 20-22° C., the light cycle was 12 h lights on (8:00-20:00 h); 12 h lights off (20:00-8:00 h). […]
# T1 sequence (Q8NER1 whole entry): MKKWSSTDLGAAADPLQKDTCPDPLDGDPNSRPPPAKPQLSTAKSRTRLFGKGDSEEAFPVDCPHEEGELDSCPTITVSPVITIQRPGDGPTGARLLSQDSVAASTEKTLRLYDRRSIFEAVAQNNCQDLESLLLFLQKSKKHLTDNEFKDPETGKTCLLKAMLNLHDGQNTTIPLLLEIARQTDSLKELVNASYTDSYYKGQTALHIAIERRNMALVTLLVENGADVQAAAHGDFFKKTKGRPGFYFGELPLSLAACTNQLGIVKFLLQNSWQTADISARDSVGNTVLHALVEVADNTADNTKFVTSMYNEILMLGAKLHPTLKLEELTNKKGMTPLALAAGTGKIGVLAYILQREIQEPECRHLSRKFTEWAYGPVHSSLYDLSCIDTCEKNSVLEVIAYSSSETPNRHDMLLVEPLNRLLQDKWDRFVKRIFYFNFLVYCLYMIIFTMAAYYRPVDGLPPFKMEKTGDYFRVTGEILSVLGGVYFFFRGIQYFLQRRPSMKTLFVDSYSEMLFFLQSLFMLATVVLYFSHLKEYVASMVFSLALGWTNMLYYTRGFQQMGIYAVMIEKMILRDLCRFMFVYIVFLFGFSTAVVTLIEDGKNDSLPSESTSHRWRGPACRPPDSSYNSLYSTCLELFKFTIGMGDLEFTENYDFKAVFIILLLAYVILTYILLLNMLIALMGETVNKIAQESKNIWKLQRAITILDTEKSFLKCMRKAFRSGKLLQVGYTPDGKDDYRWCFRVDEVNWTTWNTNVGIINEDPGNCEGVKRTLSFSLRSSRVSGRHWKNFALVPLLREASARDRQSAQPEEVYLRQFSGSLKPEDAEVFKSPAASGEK
smiles,measurement,setting,value
"CC(=O)OC1CC/C(C)=C/CC/C(C)=C/CC2(C(C)C)CCC1(C)O2 (stereo not drawn) [IA, incensole acetate]",current activation in TRPV1(+) cells,TRPV1 [1],does not activate currents
same,IL-1β mRNA expression,TNF-α and IL-1β mRNA,significantly inhibited mRNA expression
same,TNF-α mRNA expression,TNF-α and IL-1β mRNA,significantly inhibited mRNA expression
same,calcium influx in TRPV1-transfected HEK293 cells,TRPV1 [2],very small influx of calcium
same,weight loss,General toxicity in mice,No weight loss was observed
same,"immobility time, WT mice",TRPV3,significantly reduced the immobility time
